Key:
Assay in all cases: KINOMEscan scanEDGE
Assay type in all cases: binding
Settings in all cases: read-out: % Control (1µM)
GSK3B = molecular target: T1, GSK3B (Homo sapiens, UniProt P49841)
T1 construct: purchased DiscoveRx KINOMEscan (scanEDGE); Thermo Fisher SelectScreen (Z'-LYTE) for PLK-1
Method: (§1) Compound X was assayed at 1 μM in the DiscoveRx KINOMEscan (scanEDGE) assay platform. The results for single-concentration binding interactions are reported as “%Ctrl” (DMSO = 100%Ctrl), where lower numbers indicate stronger hits.

PCTK1 = molecular target: T2, PCTK1 (Homo sapiens, UniProt Q00536)
T2 construct: purchased DiscoveRx KINOMEscan (scanEDGE); Thermo Fisher SelectScreen (Z'-LYTE) for PLK-1
Method: as §1

BRAF(V600E) = molecular target: T3, BRAF(V600E) (Homo sapiens, UniProt P15056, V600E)
T3 construct: purchased DiscoveRx KINOMEscan (scanEDGE); Thermo Fisher SelectScreen (Z'-LYTE) for PLK-1
Method: as §1

[1] = molecular target: T4, RSK2(Kin.Dom.1-N-terminal) (Homo sapiens, UniProt P51812)
T4 construct: RSK2(Kin.Dom.1-N-terminal); purchased DiscoveRx KINOMEscan (scanEDGE); Thermo Fisher SelectScreen (Z'-LYTE) for PLK-1
Method: as §1

JNK2 = molecular target: T5, JNK2 (Homo sapiens, UniProt P45984)
T5 construct: purchased DiscoveRx (DiscoverX)
Method: as §1

MKNK2 = molecular target: T6, MKNK2 (Homo sapiens, UniProt Q9HBH9)
T6 construct: purchased DiscoveRx KINOMEscan (scanEDGE); Thermo Fisher SelectScreen (Z'-LYTE) for PLK-1
Method: as §1

MEK2 = molecular target: T7, MEK2 (Homo sapiens, UniProt P36507)
T7 construct: purchased DiscoveRx KINOMEscan (scanEDGE); Thermo Fisher SelectScreen (Z'-LYTE) for PLK-1
Method: as §1

PIM3 = molecular target: T8, PIM3 (Homo sapiens, UniProt Q86V86)
T8 construct: purchased DiscoveRx KINOMEscan (scanEDGE); Thermo Fisher SelectScreen (Z'-LYTE) for PLK-1
Method: as §1

EPHA2 = molecular target: T9, EPHA2 (Homo sapiens, UniProt P29317)
T9 construct: purchased DiscoveRx KINOMEscan (scanEDGE); Thermo Fisher SelectScreen (Z'-LYTE) for PLK-1
Method: as §1

MKNK1 = molecular target: T10, MKNK1 (Homo sapiens, UniProt Q9BUB5)
T10 construct: purchased DiscoveRx KINOMEscan (scanEDGE); Thermo Fisher SelectScreen (Z'-LYTE) for PLK-1
Method: as §1

p38-alpha = molecular target: T11, p38-alpha (Homo sapiens, UniProt Q16539)
T11 construct: purchased DiscoveRx KINOMEscan (scanEDGE); Thermo Fisher SelectScreen (Z'-LYTE) for PLK-1
Method: as §1

MAP3K4 = molecular target: T12, MAP3K4 (Homo sapiens, UniProt Q9Y6R4)
T12 construct: purchased DiscoveRx KINOMEscan (scanEDGE); Thermo Fisher SelectScreen (Z'-LYTE) for PLK-1
T12 sequence (Q9Y6R4 whole entry): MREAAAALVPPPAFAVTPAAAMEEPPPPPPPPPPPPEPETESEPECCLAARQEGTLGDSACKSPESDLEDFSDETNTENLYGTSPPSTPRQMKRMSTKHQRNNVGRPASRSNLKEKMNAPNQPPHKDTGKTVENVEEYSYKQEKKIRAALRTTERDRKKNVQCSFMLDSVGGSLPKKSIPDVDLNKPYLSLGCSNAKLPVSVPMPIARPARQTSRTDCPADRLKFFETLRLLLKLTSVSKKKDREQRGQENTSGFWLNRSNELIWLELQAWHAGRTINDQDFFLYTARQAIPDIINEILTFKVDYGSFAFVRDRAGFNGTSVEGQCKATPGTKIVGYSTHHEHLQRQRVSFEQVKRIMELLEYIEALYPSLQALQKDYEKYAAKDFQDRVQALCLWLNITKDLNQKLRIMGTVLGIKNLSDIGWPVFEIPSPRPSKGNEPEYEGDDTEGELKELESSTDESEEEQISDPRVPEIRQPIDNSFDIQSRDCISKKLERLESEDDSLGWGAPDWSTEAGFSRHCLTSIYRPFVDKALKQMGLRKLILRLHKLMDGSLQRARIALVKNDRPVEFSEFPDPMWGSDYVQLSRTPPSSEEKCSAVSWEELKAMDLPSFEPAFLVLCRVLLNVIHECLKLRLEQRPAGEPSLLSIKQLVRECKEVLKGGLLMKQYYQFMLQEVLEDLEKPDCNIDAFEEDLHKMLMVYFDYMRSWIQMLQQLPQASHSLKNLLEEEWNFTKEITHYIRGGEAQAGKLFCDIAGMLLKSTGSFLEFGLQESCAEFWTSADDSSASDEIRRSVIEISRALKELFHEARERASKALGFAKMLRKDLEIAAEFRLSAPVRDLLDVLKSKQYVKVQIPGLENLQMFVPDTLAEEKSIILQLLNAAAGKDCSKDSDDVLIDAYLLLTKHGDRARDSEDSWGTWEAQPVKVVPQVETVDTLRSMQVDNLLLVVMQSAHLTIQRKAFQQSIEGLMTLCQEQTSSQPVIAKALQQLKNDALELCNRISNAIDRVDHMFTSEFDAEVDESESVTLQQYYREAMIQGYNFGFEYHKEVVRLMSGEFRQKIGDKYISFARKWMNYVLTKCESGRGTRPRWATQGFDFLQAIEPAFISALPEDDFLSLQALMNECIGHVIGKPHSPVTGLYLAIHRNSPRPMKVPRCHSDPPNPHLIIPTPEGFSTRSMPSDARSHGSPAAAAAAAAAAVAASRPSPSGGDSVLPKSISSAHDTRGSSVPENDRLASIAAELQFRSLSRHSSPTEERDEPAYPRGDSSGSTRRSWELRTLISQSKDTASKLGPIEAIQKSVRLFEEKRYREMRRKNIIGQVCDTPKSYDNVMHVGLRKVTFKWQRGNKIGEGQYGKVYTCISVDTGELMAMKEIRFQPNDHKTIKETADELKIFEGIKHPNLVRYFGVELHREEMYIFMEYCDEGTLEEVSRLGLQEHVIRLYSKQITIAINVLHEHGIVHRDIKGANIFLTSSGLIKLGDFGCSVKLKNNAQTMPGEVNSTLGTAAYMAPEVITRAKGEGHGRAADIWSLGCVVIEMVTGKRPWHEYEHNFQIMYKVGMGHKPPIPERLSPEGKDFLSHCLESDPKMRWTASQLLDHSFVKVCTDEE
Method: as §1

PRKCE = molecular target: T13, PRKCE (Homo sapiens, UniProt Q02156)
T13 construct: purchased DiscoveRx KINOMEscan (scanEDGE); Thermo Fisher SelectScreen (Z'-LYTE) for PLK-1
Method: as §1

PIK3C2B = molecular target: T14, PIK3C2B (Homo sapiens, UniProt O00750)
T14 construct: purchased DiscoveRx KINOMEscan (scanEDGE); Thermo Fisher SelectScreen (Z'-LYTE) for PLK-1
Method: as §1

ERK1 = molecular target: T15, ERK1 (Homo sapiens, UniProt P27361)
T15 construct: purchased DiscoveRx KINOMEscan (scanEDGE); Thermo Fisher SelectScreen (Z'-LYTE) for PLK-1
Method: as §1

RIOK2 = molecular target: T16, RIOK2 (Homo sapiens, UniProt Q9BVS4)
T16 construct: purchased DiscoveRx KINOMEscan (scanEDGE); Thermo Fisher SelectScreen (Z'-LYTE) for PLK-1
Method: as §1

CDK7 = molecular target: T17, CDK7 (Homo sapiens, UniProt P50613)
T17 construct: purchased DiscoveRx KINOMEscan (scanEDGE); Thermo Fisher SelectScreen (Z'-LYTE) for PLK-1
Method: as §1

ABL1-phosphorylated = molecular target: T18, ABL1-phosphorylated (Homo sapiens, UniProt P00519)
T18 construct: purchased DiscoveRx KINOMEscan (scanEDGE); Thermo Fisher SelectScreen (Z'-LYTE) for PLK-1
Method: as §1

IGF1R = molecular target: T19, IGF1R (Homo sapiens, UniProt P08069)
T19 construct: purchased DiscoveRx KINOMEscan (scanEDGE); Thermo Fisher SelectScreen (Z'-LYTE) for PLK-1
T19 sequence (P08069 31-1367): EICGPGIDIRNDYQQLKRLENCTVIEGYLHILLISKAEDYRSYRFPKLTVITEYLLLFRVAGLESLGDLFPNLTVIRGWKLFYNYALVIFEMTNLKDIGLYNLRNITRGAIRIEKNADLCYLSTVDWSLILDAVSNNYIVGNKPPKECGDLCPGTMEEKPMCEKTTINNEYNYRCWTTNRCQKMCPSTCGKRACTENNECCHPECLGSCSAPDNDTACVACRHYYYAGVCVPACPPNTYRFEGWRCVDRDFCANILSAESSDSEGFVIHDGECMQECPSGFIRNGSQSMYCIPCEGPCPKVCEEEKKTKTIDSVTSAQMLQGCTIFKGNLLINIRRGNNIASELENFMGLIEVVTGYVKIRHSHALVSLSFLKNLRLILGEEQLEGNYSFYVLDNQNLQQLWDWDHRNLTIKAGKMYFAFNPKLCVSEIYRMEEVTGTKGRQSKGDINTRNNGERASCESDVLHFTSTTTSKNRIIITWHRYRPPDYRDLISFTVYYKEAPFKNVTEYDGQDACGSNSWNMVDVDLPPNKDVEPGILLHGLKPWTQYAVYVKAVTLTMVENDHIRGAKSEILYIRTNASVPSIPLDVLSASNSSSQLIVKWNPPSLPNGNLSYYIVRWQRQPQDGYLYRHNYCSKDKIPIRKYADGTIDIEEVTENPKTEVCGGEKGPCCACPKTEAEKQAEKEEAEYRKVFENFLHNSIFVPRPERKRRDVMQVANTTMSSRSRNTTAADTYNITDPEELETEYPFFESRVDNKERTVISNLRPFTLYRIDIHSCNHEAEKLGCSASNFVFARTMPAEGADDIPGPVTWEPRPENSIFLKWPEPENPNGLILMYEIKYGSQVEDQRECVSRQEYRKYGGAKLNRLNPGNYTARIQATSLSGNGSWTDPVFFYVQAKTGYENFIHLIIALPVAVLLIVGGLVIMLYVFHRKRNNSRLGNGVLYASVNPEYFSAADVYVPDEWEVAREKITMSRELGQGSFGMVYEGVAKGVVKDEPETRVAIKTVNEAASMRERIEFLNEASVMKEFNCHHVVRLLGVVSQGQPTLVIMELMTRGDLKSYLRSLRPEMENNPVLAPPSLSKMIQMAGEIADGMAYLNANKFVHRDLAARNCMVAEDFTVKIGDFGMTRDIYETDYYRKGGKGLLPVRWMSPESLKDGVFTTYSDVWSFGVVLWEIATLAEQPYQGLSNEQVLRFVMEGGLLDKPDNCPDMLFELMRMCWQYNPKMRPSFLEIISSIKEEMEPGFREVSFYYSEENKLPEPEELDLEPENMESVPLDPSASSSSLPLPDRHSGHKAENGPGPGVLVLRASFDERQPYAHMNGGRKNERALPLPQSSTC
Method: as §1

[2] = molecular target: T20, JAK3(JH1domain-catalytic) (Homo sapiens, UniProt P52333)
T20 construct: JAK3(JH1domain-catalytic); purchased DiscoveRx KINOMEscan (scanEDGE); Thermo Fisher SelectScreen (Z'-LYTE) for PLK-1
Method: as §1

DYRK1B = molecular target: T21, DYRK1B (Homo sapiens, UniProt Q9Y463)
T21 construct: purchased DiscoveRx KINOMEscan (scanEDGE); Thermo Fisher SelectScreen (Z'-LYTE) for PLK-1
T21 sequence (Q9Y463 whole entry): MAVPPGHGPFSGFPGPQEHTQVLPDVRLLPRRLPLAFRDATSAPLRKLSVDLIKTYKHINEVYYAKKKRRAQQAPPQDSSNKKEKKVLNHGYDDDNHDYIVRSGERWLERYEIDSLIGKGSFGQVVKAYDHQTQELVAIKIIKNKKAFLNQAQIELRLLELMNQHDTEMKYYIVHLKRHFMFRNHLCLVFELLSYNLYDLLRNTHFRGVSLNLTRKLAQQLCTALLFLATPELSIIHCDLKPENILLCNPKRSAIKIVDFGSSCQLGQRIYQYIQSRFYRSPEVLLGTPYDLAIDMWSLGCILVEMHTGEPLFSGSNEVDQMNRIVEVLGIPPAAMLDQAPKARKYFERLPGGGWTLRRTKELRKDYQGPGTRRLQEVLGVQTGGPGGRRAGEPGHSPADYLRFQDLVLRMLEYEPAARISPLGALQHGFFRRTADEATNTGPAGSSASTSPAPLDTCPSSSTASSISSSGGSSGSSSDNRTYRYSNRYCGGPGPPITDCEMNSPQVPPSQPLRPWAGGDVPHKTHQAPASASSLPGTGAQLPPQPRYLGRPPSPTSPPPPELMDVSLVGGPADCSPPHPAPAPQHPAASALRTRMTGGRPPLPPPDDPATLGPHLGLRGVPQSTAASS
Method: as §1

DCAMKL1 = molecular target: T22, DCAMKL1 (Homo sapiens, UniProt O15075)
T22 construct: purchased DiscoveRx KINOMEscan (scanEDGE); Thermo Fisher SelectScreen (Z'-LYTE) for PLK-1
Method: as §1

ERBB4 = molecular target: T23, ERBB4 (Homo sapiens, UniProt Q15303)
T23 construct: purchased DiscoveRx KINOMEscan (scanEDGE); Thermo Fisher SelectScreen (Z'-LYTE) for PLK-1
Method: as §1

JNK3 = molecular target: T24, JNK3 (Homo sapiens, UniProt P53779)
T24 construct: purchased DiscoveRx (DiscoverX)
Method: as §1

PAK4 = molecular target: T25, PAK4 (Homo sapiens, UniProt O96013)
T25 construct: purchased DiscoveRx KINOMEscan (scanEDGE); Thermo Fisher SelectScreen (Z'-LYTE) for PLK-1
Method: as §1

PIK3CA = molecular target: T26, PIK3CA (Homo sapiens, UniProt P42336)
T26 construct: purchased DiscoveRx KINOMEscan (scanEDGE); Thermo Fisher SelectScreen (Z'-LYTE) for PLK-1
Method: as §1

EGFR = molecular target: T27, EGFR (Homo sapiens, UniProt P00533)
T27 construct: purchased DiscoveRx KINOMEscan (scanEDGE); Thermo Fisher SelectScreen (Z'-LYTE) for PLK-1
T27 sequence (P00533 25-1210): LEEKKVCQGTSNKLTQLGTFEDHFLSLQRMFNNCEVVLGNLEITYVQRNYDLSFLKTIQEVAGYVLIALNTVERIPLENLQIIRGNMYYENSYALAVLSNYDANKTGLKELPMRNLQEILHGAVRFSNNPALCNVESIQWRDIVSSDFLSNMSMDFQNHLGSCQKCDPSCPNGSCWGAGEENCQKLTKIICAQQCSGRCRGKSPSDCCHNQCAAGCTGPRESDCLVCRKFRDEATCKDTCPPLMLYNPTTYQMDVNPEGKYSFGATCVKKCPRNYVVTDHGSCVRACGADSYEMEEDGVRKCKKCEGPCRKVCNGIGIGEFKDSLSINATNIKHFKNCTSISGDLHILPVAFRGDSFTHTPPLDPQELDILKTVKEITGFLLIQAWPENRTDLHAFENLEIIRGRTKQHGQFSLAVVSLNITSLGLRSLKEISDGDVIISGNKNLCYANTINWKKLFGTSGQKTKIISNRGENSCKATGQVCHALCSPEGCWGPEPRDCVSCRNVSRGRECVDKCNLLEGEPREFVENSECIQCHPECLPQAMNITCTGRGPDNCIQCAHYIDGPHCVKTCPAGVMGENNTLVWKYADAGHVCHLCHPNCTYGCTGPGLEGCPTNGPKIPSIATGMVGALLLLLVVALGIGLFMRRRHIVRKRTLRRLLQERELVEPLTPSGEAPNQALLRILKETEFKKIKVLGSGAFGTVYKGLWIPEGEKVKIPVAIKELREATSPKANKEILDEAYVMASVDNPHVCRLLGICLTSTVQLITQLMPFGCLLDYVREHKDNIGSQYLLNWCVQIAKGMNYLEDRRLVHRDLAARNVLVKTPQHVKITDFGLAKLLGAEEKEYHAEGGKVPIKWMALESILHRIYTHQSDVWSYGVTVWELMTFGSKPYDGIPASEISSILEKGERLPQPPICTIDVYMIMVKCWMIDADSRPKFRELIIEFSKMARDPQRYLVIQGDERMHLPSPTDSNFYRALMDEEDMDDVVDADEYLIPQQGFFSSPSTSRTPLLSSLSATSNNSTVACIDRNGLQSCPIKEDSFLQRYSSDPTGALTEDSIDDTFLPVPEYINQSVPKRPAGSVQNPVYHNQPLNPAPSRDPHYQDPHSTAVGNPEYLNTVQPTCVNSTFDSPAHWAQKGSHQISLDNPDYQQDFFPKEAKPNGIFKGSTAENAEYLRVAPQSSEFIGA
Method: as §1

[3] = molecular target: T28, ABL1(T315I)-phosphorylated (Homo sapiens, UniProt P00519, T315I)
T28 construct: purchased DiscoveRx KINOMEscan (scanEDGE); Thermo Fisher SelectScreen (Z'-LYTE) for PLK-1
Method: as §1

IKK-alpha = molecular target: T29, IKK-alpha (Homo sapiens, UniProt O15111)
T29 construct: purchased DiscoveRx KINOMEscan (scanEDGE); Thermo Fisher SelectScreen (Z'-LYTE) for PLK-1
Method: as §1

MEK1 = molecular target: T30, MEK1 (Homo sapiens, UniProt Q02750)
T30 construct: purchased DiscoveRx KINOMEscan (scanEDGE); Thermo Fisher SelectScreen (Z'-LYTE) for PLK-1
Method: as §1

RET = molecular target: T31, RET (Homo sapiens, UniProt P07949)
T31 construct: purchased DiscoveRx KINOMEscan (scanEDGE); Thermo Fisher SelectScreen (Z'-LYTE) for PLK-1
Method: as §1

[4] = molecular target: T32, JAK2(JH1domain-catalytic) (Homo sapiens, UniProt O60674)
T32 construct: JAK2(JH1domain-catalytic); purchased DiscoveRx KINOMEscan (scanEDGE); Thermo Fisher SelectScreen (Z'-LYTE) for PLK-1
Method: as §1

CDK2 = molecular target: T33, CDK2 (Homo sapiens, UniProt P24941)
T33 construct: purchased DiscoveRx KINOMEscan (scanEDGE); Thermo Fisher SelectScreen (Z'-LYTE) for PLK-1
Method: as §1

CSF1R = molecular target: T34, CSF1R (Homo sapiens, UniProt P07333)
T34 construct: purchased DiscoveRx KINOMEscan (scanEDGE); Thermo Fisher SelectScreen (Z'-LYTE) for PLK-1
Method: as §1

CSNK1G2 = molecular target: T35, CSNK1G2 (Homo sapiens, UniProt P78368)
T35 construct: purchased DiscoveRx KINOMEscan (scanEDGE); Thermo Fisher SelectScreen (Z'-LYTE) for PLK-1
Method: as §1

SRC = molecular target: T36, SRC (Homo sapiens, UniProt P12931)
T36 construct: purchased DiscoveRx KINOMEscan (scanEDGE); Thermo Fisher SelectScreen (Z'-LYTE) for PLK-1
Method: as §1

KIT = molecular target: T37, KIT (Homo sapiens, UniProt P10721)
T37 construct: purchased DiscoveRx (DiscoverX)
Method: as §1

MARK3 = molecular target: T38, MARK3 (Homo sapiens, UniProt P27448)
T38 construct: purchased DiscoveRx KINOMEscan (scanEDGE); Thermo Fisher SelectScreen (Z'-LYTE) for PLK-1
Method: as §1

[5] = molecular target: T39, ABL1(E255K)-phosphorylated (Homo sapiens, UniProt P00519, E255K)
T39 construct: purchased DiscoveRx KINOMEscan (scanEDGE); Thermo Fisher SelectScreen (Z'-LYTE) for PLK-1
Method: as §1

ROCK2 = molecular target: T40, ROCK2 (Homo sapiens, UniProt O75116)
T40 construct: purchased DiscoveRx KINOMEscan (scanEDGE); Thermo Fisher SelectScreen (Z'-LYTE) for PLK-1
Method: as §1

CCOc1cc(C2CCN(C)CC2)ccc1Nc1ncc2c(n1)N(Cc1cc(C)cs1)[C@H](CC)C(=O)N2C [16k, (R)-2-((2-Ethoxy-4-(1-methylpiperidin-4-yl)phenyl)amino)-7-ethyl-5-methyl-8-((4-methylthiophen-2-yl)methyl)-7,8-dihydropteridin-6(5H)-one]
remaining binding at 1 µM (GSK3B): 82% | remaining binding at 1 µM (PCTK1): 95% | remaining binding at 1 µM (BRAF(V600E)): 98% | remaining binding at 1 µM [1]: 59% | remaining binding at 1 µM (JNK2): 44% | remaining binding at 1 µM (MKNK2): 60% | remaining binding at 1 µM (MEK2): 100% | remaining binding at 1 µM (PIM3): 100% | remaining binding at 1 µM (EPHA2): 100% | remaining binding at 1 µM (MKNK1): 100% | remaining binding at 1 µM (p38-alpha): 92% | remaining binding at 1 µM (MAP3K4): 92% | remaining binding at 1 µM (PRKCE): 100% | remaining binding at 1 µM (PIK3C2B): 88% | remaining binding at 1 µM (ERK1): 100% | remaining binding at 1 µM (RIOK2): 74% | remaining binding at 1 µM (CDK7): 88% | remaining binding at 1 µM (ABL1-phosphorylated): 100% | remaining binding at 1 µM (IGF1R): 77% | remaining binding at 1 µM [2]: 100% | remaining binding at 1 µM (DYRK1B): 63% | remaining binding at 1 µM (DCAMKL1): 100% | remaining binding at 1 µM (ERBB4): 93% | remaining binding at 1 µM (JNK3): 39% | remaining binding at 1 µM (PAK4): 100% | remaining binding at 1 µM (PIK3CA): 96% | remaining binding at 1 µM (EGFR): 86% | remaining binding at 1 µM [3]: 71% | remaining binding at 1 µM (IKK-alpha): 97% | remaining binding at 1 µM (MEK1): 100% | remaining binding at 1 µM (RET): 99% | remaining binding at 1 µM [4]: 83% | remaining binding at 1 µM (CDK2): 100% | remaining binding at 1 µM (CSF1R): 100% | remaining binding at 1 µM (CSNK1G2): 100% | remaining binding at 1 µM (SRC): 100% | remaining binding at 1 µM (KIT): 100% | remaining binding at 1 µM (MARK3): 100% | remaining binding at 1 µM [5]: 100% | remaining binding at 1 µM (ROCK2): 100%

— article PMC6421522, “Designing Dual Inhibitors of Anaplastic Lymphoma Kinase (ALK) and Bromodomain-4 (BRD4) by Tuning Kinase Selectivity” (Journal of Medicinal Chemistry, 2019)
